Results on 34 compounds are retold here after patent publication US8247569B2, “Cyclohexane derivative and pharmaceutical use thereof” (Toray Industries, Inc., priority 2008, dated 2012).

Like-named read-outs stand apart in the source and are kept apart here. Bounds are passed on as bounds.

Data set [1] deals with mouse sciatic nerve-ligation model (Seltzer model). Put plainly: mouse partial sciatic nerve ligation model (Seltzer model), von Frey test. The settings on record: for von Frey total score compared to the vehicle group: 1 hour after oral administration, doses as in Table 11; for von Frey Total Score Observed 1 Hour after Oral Administration (mean ± standard error), Compound-administered group: n = 5 to 6.

Data set [2] can be described thus: human liver microsomal stability assay. The class given is in vitro ADME. The settings on record: liver microsomes, pH 7.4, human liver microsomes 0.5 mg/mL, test compound 2 μmol/L, 37° C., 0-30 min, read-out: Human hepatic intrinsic clearance. Here is the method:
A liver microsomal stability assay, which is known to be an in vitro assay for evaluation of the stability of a compound against hepatic metabolism, was carried out to evaluate the stability of Compound (I) against human and mouse hepatic metabolism.
A total of 4 times of experiments were carried out for the combinations of the compound of Example 2-B or the compound of Comparative Example 29 as the test compound and human liver microsomes (Xenotech) or mouse liver microsomes (Xenotech) as the liver microsomes.
The respective reagents to be used for the liver microsomal stability assay were prepared as follows. That is, an appropriate amount of D-glucose 6-phosphate disodium salt (hereinafter referred to as G6P) was dissolved in distilled water at 100 mmol/L, to prepare 100 mmol/L aqueous G6P solution. In 5 mL of distilled water, 1000 units of Glucose 6-phosphate dehydrogenase from Yeast (hereinafter referred to as G6PDH) was dissolved, to prepare 200 units/mL aqueous G6PDH solution. An appropriate amount of MgCl2 was dissolved in distilled water at 100 mmol/L, to prepare 100 mmol/L aqueous MgCl2 solution. To 500 mL of 200 mmol/L aqueous K2HPO4 solution, 200 mmol/L aqueous KH2PO4 solution (about 130 mL) was added, and pH was adjusted to 7.4, to prepare 200 mmol/L KH2PO4/K2HPO4 buffer pH7.4 (hereinafter referred to as 200 mmol/L PB). β-nicotinamide-adenine dinucleotide phosphate, reduced form, tetrasodium salt (hereinafter referred to as (NADPH) was dissolved in distilled water such that the NADPH content becomes 10 mmol/L based on the purity (Purity NADPH) in the assay data described in the attached document, to prepare 10 mmol/L aqueous NADPH solution.
The liver microsomal stability assay was carried out according to the following procedure. First, the reagents listed in Table 12 (excluding microsomes) were mixed together to prepare a reaction mixture, and the reaction mixture was aliquoted in 130 μL volumes to 4 wells (which play roles as the wells for the 0-minute reaction, well for the 30-minute reaction, well for the 20-minute reaction and well for the 10-minute reaction, respectively) in a 96-well tube plate (BM Equipment Co., Ltd; hereinafter referred to as plate). The entire plate was covered with a silicone cap, and the plate was subjected to preincubation by being soaked in a water bath at 37° C. for 10 minutes.
After the preincubation, 3.75 μL of 20 mg/mL microsome suspension+16.25 μL of distilled water (20 μL in total) were added to the well for the 30-minute reaction, and the plate was covered with the cap, followed by soaking the plate in a water bath at 37° C. to initiate the reaction.
Ten minutes after the beginning of the reaction, 3.75 μL of 20 mg/mL microsome suspension+16.25 μL of distilled water (20 μL in total) were added to the well for the 20-minute reaction, and 20 minutes after the beginning of the reaction, 3.75 μL of 20 mg/mL microsome suspension+16.25 μL of distilled water (20 μL in total) were added to the well for the 10-minute reaction. The reaction was further continued by keeping the plate soaked in the water bath at 37° C.
Thirty minutes after the beginning of the reaction, the plate was removed from the water bath, and 120 μL of acetonitrile was added to each well, followed by covering the plate with the cap, stirring the plate for 10 seconds with Direct Mixer, and stopping the reaction by 10 minutes of ice cooling. After the reaction was stopped, 3.75 μL of 20 mg/mL microsome suspension+16.25 μL of distilled water (20 μL in total) were added to the well for the 0-minute reaction.
The reaction liquid in each well was centrifuged at 4° C. at 2500 rpm for 10 minutes, and the supernatant was transferred to a glass-coated microplate (TOMSIC Plate+) to begin LC/MS/MS analysis. The conditions for the LC/MS/MS analysis were as follows: […]
For orientation: Microsomes from liver hold many membrane-bound enzymes, among them those of drug oxidation.

The subject of data set [3] is mouse acetic acid writhing model. The data set can be described thus: mouse acetic acid writhing model (nociceptive pain). Format: in vivo. The settings on record: for ED50: male ddY mice, oral administration 45 min before 0.6% acetic acid i.p., dose suppressing 50% of writhing responses vs vehicle group, vehicle A or B. (In general: An intraperitoneal irritant provokes the stretching counted in writhing tests.)

In the case of `COc1ccc(-c2cc(C3(O)CCC(O)CC3)nn2-c2ccc(OC)cc2)cc1` (single isomer, unassigned) [Example 4-B, 1-(1,5-Bis(4-methoxyphenyl)-1H-pyrazol-3-yl)cyclohexan-cis-1,4-diol], the “von Frey total score compared to the vehicle group” value in data set [1] is reported as “significantly improved”. Moreover, in data set [1] (dose 10 mg/kg oral, […]), the “von Frey Total Score Observed 1 Hour after Oral Administration (mean ± standard error), Compound-administered group” value amounted to 2.2 ± 0.5. For the same compound, in data set [2], the microsomal CLint at 2 μmol/L was 8.69 µL/min/mg.
Take `COc1ccc(-c2nc(C3(O)CCC(O)CC3)oc2-c2ccc(OC)cc2)cc1` (single isomer, unassigned) [Example 67-B, 4-(4,5-Bis(4-methoxyphenyl)oxazol-2-yl)cyclohexan-cis-1,4-diol]: in data set [1], the “von Frey total score compared to the vehicle group” value is listed as “significantly improved”. Moreover, in data set [1] (dose 10 mg/kg oral, […]), the “von Frey Total Score Observed 1 Hour after Oral Administration (mean ± standard error), Compound-administered group” value was 0.8 ± 0.7. For the same compound, the microsomal CLint at 2 μmol/L in data set [2] worked out at 12.7 µL/min/mg. Further, in data set [3] (Mus musculus, read-out: ED50), the ED50 (as a rule, the dose that gives a 50% effect, or the effect in half of the subjects) amounted to 7.32 mg/kg.
For the compound `COc1ccc(-n2nc(C3(O)CCC(O)CC3)cc2-c2ccc(S(C)(=O)=O)cc2)cc1` (stereo not drawn) [Comparative Example 3], the ED50 in data set [3] (Mus musculus, read-out: ED50) was greater than 10 mg/kg.
As for `COc1ccc(-n2nc(C3(OC(C)=O)CCC(O)CC3)cc2-c2ccc(C)cc2)cc1` (stereo not drawn) [Comparative Example 26, c-4-Hydroxy-1-(1-(4-methoxyphenyl)-5-(p-tolyl)-1H-pyrazol-3-yl)-cyclohexan-r-1-yl acetate], in data set [3] (Mus musculus, read-out: ED50), the ED50 was greater than 10 mg/kg.
The same measure, in the same setting: with `COc1ccc(-n2nc(C3(OC)CCC(O)CC3)cc2-c2ccc(C)cc2)cc1` (stereo not drawn) [Comparative Example 27, 4-Methoxy-4-(1-(4-methoxyphenyl)-5-p-tolyl-1H-pyrazol-3-yl)cyclohexanol] the figure was greater than 10 mg/kg; with `COc1ccc(-n2nc(C3(O)CCC(O)CC3)c(F)c2-c2ccc(C)cc2)cc1` (stereo not drawn) [Comparative Example 28, 1-(4-Fluoro-1-(4-methoxyphenyl)-5-(p-tolyl)-1H-pyrazol-3-yl)cyclohexan-cis-1,4-diol], greater than 10 mg/kg.
Regarding `NS(=O)(=O)c1ccc(-n2nc(C3CCCCC3)cc2-c2ccccc2)cc1CO` [Comparative Example 30, 4-(3-Cyclohexyl-5-phenyl-1H-pyrazol-1-yl)-2-(hydroxymethyl)benzenesulfonamide], in data set [3] (Mus musculus, read-out: ED50), the ED50 was greater than 10 mg/kg. Besides, the “reduction in the number of writhing responses” value in data set [3] (administration of 10 mg/kg, t-test) is “did not cause significant reduction”.
Turning to `COc1ccc(-n2nc(C3(O)CCCCC3)cc2-c2ccc(C)cc2)cc1` [Compound 1], the ED50 in data set [3] (Mus musculus, read-out: ED50) amounted to 3.78 mg/kg.
The same measure, in the same setting: with `CCc1ccc(-c2cc(C3(O)CCC(O)CC3)nn2-c2ccc(OC)cc2)cc1` (stereo not drawn) [Compound 28] the figure was 5.27 mg/kg.
With `COc1ccc(-n2nc(C3(O)CCC(O)CC3)cc2-c2ccc(C)cc2)cc1F` (stereo not drawn) [Compound 29], the ED50 in data set [3] (Mus musculus, read-out: ED50) came out at 3.77 mg/kg.
For `COc1ccc(-n2nc(C3(O)CCC(O)CC3)cc2-c2ccc(C)cc2)cc1F` (stereo not drawn) [Compound 30], the “von Frey Total Score Observed 1 Hour after Oral Administration (mean ± standard error), Compound-administered group” value in data set [1] (dose 10 mg/kg oral, […]) amounted to 1.2 ± 0.6.
As to `COc1ccc(-n2nc(C3(O)CCC(O)CC3)cc2-c2ccc(C)c(F)c2)cc1` (stereo not drawn) [Compound 31], the “von Frey Total Score Observed 1 Hour after Oral Administration (mean ± standard error), Compound-administered group” value in data set [1] (dose 3 mg/kg oral, vehicle B (27% HP-β-CD)) is reported as 0.7 ± 0.5. Further, the ED50 in data set [3] (Mus musculus, read-out: ED50) came to 0.41 mg/kg.
For `Cc1ccc(-c2cc(C3(O)CCC(O)CC3)nn2-c2ccc(Cl)cc2)cc1` (stereo not drawn) [Example 6-A, 1-(1-(4-Chlorophenyl)-5-p-tolyl-1H-pyrazol-3-yl)cyclohexan-trans-1,4-diol], in data set [3] (Mus musculus, read-out: ED50), the ED50 is 7.97 mg/kg.
Regarding `CCc1ccc(-c2cc(C3(O)CCC(O)CC3)nn2-c2ccc(OC)cc2)cc1` (stereo not drawn) [Example 28], the microsomal CLint at 2 μmol/L in data set [2] was 3.19 µL/min/mg.
On the same count and under the same terms, with `COc1ccc(-n2nc(C3(O)CCC(O)CC3)cc2-c2ccc(C)cc2)cc1F` (stereo not drawn) [Example 30] the figure was 3.92 µL/min/mg.
As for `COc1ccc(-n2nc(C3(F)CCC(O)CC3)cc2-c2ccc(C)cc2)cc1` (stereo not drawn) [Example 60, t-4-Fluoro-4-(1-(4-methoxyphenyl)-5-(p-tolyl)-1H-pyrazol-3-yl)-cyclohexan-r-1-ol], the ED50 in data set [3] (Mus musculus, read-out: ED50) came to 1.37 mg/kg.
In the case of `COc1ccc(-n2nc(C3(O)CCC(OC)CC3)cc2-c2ccc(C)cc2)cc1` (stereo not drawn) [Example 63, 4-Methoxy-1-(1-(4-methoxyphenyl)-5-(p-tolyl)-1H-pyrazol-3-yl)cyclohexanol], in data set [3] (Mus musculus, read-out: ED50), the ED50 is 5.36 mg/kg.
The same measure, in the same setting: with `COc1ccc(-n2nc(C3(CO)CCC(O)CC3)cc2-c2ccc(C)cc2)cc1` (stereo not drawn) [Example 65-A, 4-(Hydroxymethyl)-4-(1-(4-methoxyphenyl)-5-p-tolyl-1H-pyrazol-3-yl)-trans-1,4-cyclohexanol] the figure was 1.44 mg/kg; with `COc1ccc(-c2nc(C3(O)CCC(O)CC3)sc2-c2ccc(C)cc2)cc1` (stereo not drawn) [Example 69-A, 1-(4-(4-Methoxyphenyl)-5-(p-tolyl)thiazol-2-yl)cyclohexan-trans-1,4-diol], 3.02 mg/kg.
Take `COc1ccc(-c2nc(C3(O)CCC(O)(C(F)(F)F)CC3)sc2-c2ccc(C)cc2)cc1` (stereo not drawn) [Example 70-B, 1-(4-(4-Methoxyphenyl)-5-(p-tolyl)thiazol-2-yl)-4-(trifluoromethyl)cyclohexan-cis-1,4-diol]: in data set [3], the ED50 is given as 9.65 mg/kg.
As to `CCOC(=O)C1CCC(O)(c2cc(-c3ccc(C)cc3)n(-c3ccc(OC)cc3)n2)CC1` (stereo not drawn) [Example 71, Ethyl 4-hydroxy-4-(1-(4-methoxyphenyl)-5-p-tolyl-1H-pyrazol-3-yl)-cis-cyclohexanecarboxylate], the ED50 in data set [3] (Mus musculus, read-out: ED50) came to 1.58 mg/kg.
As for `COc1ccc(-n2nc(C3(O)CCC(O)CC3)cc2-c2ccccc2C)cc1` (stereo not drawn) [compound 1], the ED50 in data set [3] (Mus musculus, read-out: ED50) was greater than 10 mg/kg.
`OC1CCC(O)(c2cc(-c3ccc(Cl)cc3)n(-c3ccc(F)cc3)n2)CC1` (stereo not drawn) [compound 5]: the 50% effective dose (ED50) in data set [3] (Mus musculus, read-out: ED50) is greater than 10 mg/kg.
In the case of `OC1CCC(O)(c2cc(-c3ccc(Cl)cc3)n(-c3ccc(Cl)cc3Cl)n2)CC1` (stereo not drawn) [compound 7], the ED50 in data set [3] (Mus musculus, read-out: ED50) was greater than 10 mg/kg.
Turning to `COc1ccc(-n2nc(C3(O)CCC(O)CC3)cc2-c2cccc(C)c2)cc1` (stereo not drawn) [compound 10], the ED50 in data set [3] (Mus musculus, read-out: ED50) is greater than 10 mg/kg.
Regarding `Cc1ccc(-c2cc(C3(O)CCC(O)CC3)nn2-c2ccc(F)cc2)cc1` (stereo not drawn) [compound 11], the ED50 in data set [3] (Mus musculus, read-out: ED50) was greater than 10 mg/kg.
Still for that read-out and setting: the same measure for `COc1ccc(-n2nc(C3(O)CCC(O)CC3)cc2-c2ccc(F)cc2)cc1` (stereo not drawn) [compound 13]: greater than 10 mg/kg; for `OC1CCC(O)(c2cc(-c3ccc(F)cc3)n(-c3ccc(Cl)cc3)n2)CC1` (stereo not drawn) [compound 15]: greater than 10 mg/kg; for `OC1CCC(O)(c2cc(-c3ccc(F)cc3)n(-c3ccc(F)cc3)n2)CC1` (stereo not drawn) [compound 17]: greater than 10 mg/kg.
As to `OC1CCC(O)(c2cc(-c3ccc(F)cc3)n(-c3ccccc3)n2)CC1` (stereo not drawn) [compound 19], the 50% effective dose (ED50) in data set [3] (Mus musculus, read-out: ED50) is greater than 10 mg/kg.
`Cc1ccc(-n2nc(C3(O)CCC(O)CC3)cc2-c2ccc(F)cc2)cc1` (stereo not drawn) [compound 21]: the ED50 in data set [3] (Mus musculus, read-out: ED50) is greater than 10 mg/kg.
Still for that read-out and setting: the same measure for `Cc1ccc(-c2cc(C3(O)CCC(O)CC3)nn2-c2ccc(S(C)(=O)=O)cc2)cc1` (stereo not drawn) [compound 23]: greater than 10 mg/kg; for `COc1ccc(-n2nc(C3(O)CCC(O)CC3)cc2-c2cccnc2OC)cc1` (stereo not drawn) [compound 24]: greater than 10 mg/kg.
With `NCC1(CC(=O)O)CCCCC1` [gabapentin, reference compound], in data set [1] (positive controls, gabapentin 30 mg/kg oral, dose of Comparative Example 29 not given), the “analgesic effect 3 hours after the oral administration (von Frey test)” value is recorded as “drastically decreased”. Also, the “time of strongest analgesic effect after oral administration (von Frey test)” value in data set [1] (positive controls, gabapentin 30 mg/kg oral, dose of Comparative Example 29 not given, FIGS. 1 to 4) turned out to be 1 h.
